Measurements reported in paper PMC4192315, “An Efficient Preparation of Mulberroside A from the Branch Bark of Mulberry and Its Effect on the Inhibition of Tyrosinase Activity” (PLoS ONE, 2014).
Entries after “also recorded” stand apart in the source; their conditions may differ. Where two headings read alike, the source gives them in different places.

Experiments:
[1] = Effect on the non-enzyme-catalysed process (redox reaction of L-DOPA and p-benzoquinone, HPLC); conditions: HPLC at 245 nm and 280 nm
Method: The effect of the non-enzyme-catalysed process was determined by a previously described method, with slight modifications. The HPLC conditions were as follows: a Shimadzu HPLC pump equipped with a Shimadzu VP-ODS column (250 mm×4.6 mm). The detection wavelengths were 245 nm and 280 nm. The injection volume was 20 µL, and the flow-rate was 1.0 mL/min. The mobile phases were A (0.4% aqueous acetic acid) and B (acetonitrile), which were prepared according to the following linear procedure: 0–10 min, A/B = 90:10 (v/v).

[2] = test system: mushroom tyrosinase; experiment: Effect on the total process of dopachrome synthesis (consecutive UV-Vis spectra, oxidation of L-tyrosine by tyrosinase); assay type: biochemical; conditions: 2.0 µmol/L sample, 0-12 min
Method: The effect of tyrosinase (Worthington, USA) on the catalysis of L-tyrosine to dopachrome was determined using the method described by Hiroki, with slight modifications. The total reaction volume was 3 mL. […] The change in the absorption spectrum was determined using a Hitachi U3000 UV-visible spectrophotometer at 30°C isothermal conditions. The scanning wavelength ranged from 250 nm to 600 nm. The scanning frequency was 2 min, and the scanning time was 12 min. Thus, the changes in the absorption spectrum over time were obtained.

[3] = test system: mushroom tyrosinase; experiment: Effect on the enzyme-catalysed process (N-acetyl-L-tyrosine as substrate, HPLC); assay type: biochemical; conditions: 175.9 µmol/L sample, 0-60 min
Method: The effect of the enzyme-catalysed process was determined using a previously described method, with slight modifications. In total, 100 mg N-acetyl-L-tyrosine was dissolved using NaH2PO4-Na2HPO4 temporary buffer solution (pH 6.8), and the volume was set to 100 mL. In total, 0.25 mg/mL enzyme solution and a certain concentration of the sample solution were prepared. All the solutions were filtered using a syringe filter with an aperture of 0.22 µm. The components of the reaction system were as follows: 80 µL N-acetyl-L-tyrosine was mixed with 10 µL sample solution and incubated at 30°C for 5 min, and then 10 µL enzyme solution was added. During the period from 0–60 min, 20 µL mixed solution was injected into the HPLC system every 10 min to detect changes in N-acetyl-L-tyrosine. The HPLC conditions were as follows: a Shimadzu HPLC pump equipped with a Shimadzu 9082652 VP-ODS column (250 mm×4.6 mm). The detection wavelength was 275 nm. The injection volume was 10 µL, and the flow-rate was 1.0 mL/min. The mobile phases were A (water) and B (acetonitrile), which were prepared according to the following linear procedure: 0–8 min, A/B = 85:15 (v/v). All analyses were performed at room temperature.

[4] = target: diphenolase activity of the mushroom tyrosinase (Agaricus bisporus, UniProt C7FF04); experiment: Inhibition of diphenolase activity of mushroom tyrosinase (L-DOPA as substrate, absorbance at 475 nm); assay type: biochemical; conditions: for Inhibition type: Lineweaver-Burk plots; for Inhibition mechanism: plot of V against [E]
diphenolase activity of the mushroom tyrosinase, sequence (C7FF04 1-392): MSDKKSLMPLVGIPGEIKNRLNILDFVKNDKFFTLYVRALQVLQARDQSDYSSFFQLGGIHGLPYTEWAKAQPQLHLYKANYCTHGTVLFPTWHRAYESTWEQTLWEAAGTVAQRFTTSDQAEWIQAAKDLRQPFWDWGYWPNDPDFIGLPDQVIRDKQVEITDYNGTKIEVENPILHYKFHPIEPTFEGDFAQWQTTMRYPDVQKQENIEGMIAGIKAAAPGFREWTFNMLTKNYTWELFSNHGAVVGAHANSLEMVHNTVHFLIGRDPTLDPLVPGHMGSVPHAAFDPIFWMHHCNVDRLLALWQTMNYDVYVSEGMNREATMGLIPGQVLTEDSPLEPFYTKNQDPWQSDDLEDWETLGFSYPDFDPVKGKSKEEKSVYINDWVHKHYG
Method: The measurement of the sample's inhibitory activity on diphenolase activity was based on 0.5 mmol/L L-DOPA as the substrate. The experimental procedure and calculations were identical to those above-mentioned procedures and calculations.
(§1) The concentration of the substrate was fixed in 3.0 mL of 50 mmol/L NaH2PO4-Na2HPO4 temporary buffer solution (pH 6.8); however, the amount of enzyme was changed to determine the effects of different concentrations of sample on the reaction of mushroom tyrosinase catalysing L-tyrosine or L-DOPA as substrates. Mapping the reaction rate in terms of the amount of enzyme determined whether the inhibition was a reversible reaction.
(§2) And the inhibition type and inhibition constant were determined as follows. The concentration of the enzyme solution was fixed in 3.0 mL of 50 mmol/L NaH2PO4-Na2HPO4 temporary buffer solution (pH 6.8); however, the amount of substrate (L-tyrosine or L-DOPA) was changed to determine the effects of different concentrations of effectors on the reaction of mushroom tyrosinase catalysing the substrate. Using the Lineweaver-Burk method, the curve was plotted as the reciprocal of the reaction rate 1/V against the reciprocal of the substrate 1/[S] to determine the type of inhibition. If the lines intersected on the y-axis, then competitive inhibition was indicated. If the lines intersected on the x-axis, then noncompetitive inhibition was indicated. If the lines intersected in the […] quadrant, then this inhibition was mixed type 1 or 2. If the lines were parallel, then anticompetitive inhibition was indicated. The inhibition constant of the effectors on tyrosinase (KI) and the inhibition constants of the enzyme-substrate complex (KIS) were obtained by a secondary plot of the concentration of the effectors against the slope of the line and the y-axis intercept, respectively.

[5] = test system: mushroom tyrosinase; experiment: Mushroom tyrosinase inhibition (literature values); assay type: biochemical; conditions: monophenolase
[6] = test system: mushroom tyrosinase; conditions: cited from earlier work
[7] = target: monophenolase activity of the mushroom tyrosinase (Agaricus bisporus, UniProt C7FF04); experiment: Inhibition of monophenolase activity of mushroom tyrosinase (L-tyrosine as substrate, absorbance at 475 nm); assay type: biochemical; conditions: for Inhibition type: Lineweaver-Burk plots; for Inhibition mechanism: plot of V against [E]
monophenolase activity of the mushroom tyrosinase, sequence (C7FF04 1-392): as above
Method: The measurement of the sample's inhibitory activity on monophenolase activity was based on 0.5 mmol/L L-tyrosine as the substrate. The total reaction volume was 3.0 mL, which included 2.8 mL substrate solution, 100 µL different concentrations of the sample solutions and 100 µL mushroom tyrosinase solution. The substrate and enzyme solution were dissolved in 50 mmol/L NaH2PO4-Na2HPO4 temporary buffer solution (pH 6.8), with a substrate concentration of 0.5 mmol/L and with an enzyme solution concentration of 1.0 mg/mL. The samples were dissolved in DMSO. First, 100 µL sample solution was added, then 2.8 mL substrate solution, which was pre-incubated at 30°C, was added, and last, 100 µL enzyme solution was added and immediately mixed. The curve was drawn using real-time tracking of the optical density change over time at 475 nm. The measuring instrument was a Hitachi U3000 UV-visible spectrophotometer. The enzyme activity was obtained from the slope of the line. The sample concentration-response curve was plotted as the inhibition rate of samples to the enzyme against the concentrations of effectors.
as §1, §2

[8] = target: tyrosinase; set-up: method as in PMID 22878208; conditions: read-out: IC50 of tyrosinase inhibitory activity; cited from earlier work
[9] = test system: intestinal bacteria; conditions: cited from earlier work
[10] = set-up: method as in PMID 8951165; conditions: rats, cited from earlier work
[11] = cited from earlier work
[12] = MA isolated from ethanol extract of roots of Morus alba, read-out: Tyrosinase inhibitory activity

Row | SMILES | Effect on redox reaction of L-DOPA and p-benzoquinone (non-enzymatic process) [1] | Effect on formation of dopachrome [2] | Change in content of N-acetyl-L-tyrosine [3] | Inhibition type [4] | Inhibition mechanism [4] | IC50 [6, 12] [µM] | Inhibition type [7] | KIS (inhibition constant of the enzyme-substrate complex) [7] [µmol/L] | Inhibition mechanism [7] | further results
1 | Oc1cc(O)cc(/C=C/c2ccc(O)cc2O)c1 [OR, oxyresveratrol] | not influenced | inhibited the formation of dopachrome | did not change | Non-competitive | reversible | 0.49 | mixed type 1 | 0.662 | reversible | KIS (inhibition constant of the enzyme-substrate complex) ([4]; enzyme-substrate complex): 2.95 µmol/L; Difference in IC50 between literature and this paper ([5]; compared with ref 8): 8 fold; Difference in IC50 between literature and this paper ([5]; printed as lower than our experiment, compared with ref 6): approximately 4 fold; Inhibition mechanism ([6]; L-tyrosine as the substrate): reversibly inhibited; Inhibition type ([6]; L-tyrosine as the substrate): non-competitive; IC50 ([6]; depending on the assay conditions, read-out: IC50): 0.46 to 1.1 µM
2 | OC[C@H]1O[C@@H](Oc2cc(O)cc(/C=C/c3ccc(O[C@@H]4O[C@H](CO)[C@@H](O)[C@H](O)[C@H]4O)cc3O)c2)[C@H](O)[C@@H](O)[C@@H]1O [MA, oxyresveratrol-4-O-β-D-glucopyranosyl-3′-O-β-D-glucopyranoside] | not influenced; also recorded: no effect | inhibited the formation of dopachrome | did not change | competitive | reversible | 53.6 | mixed type 1 | 0.177 | reversible | IC50 [8]: 42.1 µM; Metabolism by intestinal bacteria [9]: rapidly deglucosylated and transformed into OR; Bioavailability ([10]; oral administration of mulberry root acetone extract): approximately 1%; Absorption rate ([10]; oral, most MA transformed to OR and transferred into circulating blood, estimated): 50%; Permeability [11]: poor permeability; Inhibition type ([6]; L-tyrosine and L-DOPA as substrates): competitive
